Where a name gives a salt, the structure may show the parent alone. Read-outs that look alike come from different tables or passages of the source.
What was measured:
[1] = system: isolated rabbit urethra; assay: Effects on the isolated rabbit urethra (contraction, in vitro); type: cell-based; settings: Krebs solution, 37° C.; for Emax / Urethra, in vitro: Max. contraction: cumulative addition (12 concentrations), reference noradrenaline 6×10^-5 M; for EC50: cumulative addition
Procedure: (§1) Female rabbits weighing 2.5-3.0 kg were sacrificed and exsanguinated. The urethra and portal vein were dissected out and suspended in organ baths containing oxygenated Krebs solution at 37° C. Two rings of urethra (4 mm broad) and two longitudinal strips of the portal vein were used. The basal tension was adjusted to about 10 mN after an equilibration time of 60 minutes. Isometric tension was recorded via a force transducer (Statham FT03) and registered on a Grass polygraph model 7.
(§2) Submaximum concentrations of noradrenaline (6×10^-5 M) were used to achieve reference contractions.
(§3) The test substances were added cumulatively (12 concentrations) until a maximum response was obtained.

[2] = system: isolated rabbit portal vein; assay: Effects on the isolated rabbit portal vein (contraction, in vitro); type: cell-based; settings: for EC50 / Emax: Oryctolagus cuniculus; for EC50: read-out: Portal vein, in vitro: EC50 value (effective concentration inducing a half maximum contraction); for Portal vein, in vitro: Max. contraction / Emax: cumulative addition (12 concentrations), reference noradrenaline 6×10^-5 M
Procedure: as §1, §2, §3

[3] = system: urethra (urethral pressure in anaesthetized rabbits); assay: Effects on urethral pressure in anaesthetized rabbits; type: in vivo, rabbit; settings: reference noradrenaline 0.025 μg/kg i.v.; for Emax: Oryctolagus cuniculus, iv
Procedure: (§4) Rabbits, weighing 2.5-3 kg, were anaesthetized by pentobarbitone (initially 40 mg/kg i.v. and for maintenance anaesthesia 10 mg/kg, h). For recording of urethral pressure a catheter (Dog cath nr 6.) was inserted into the urethra and placed at the point of highest pressure. The basal urethral pressure was approximately 10 cm H2 O. The blood pressure was recorded via a catheter (PP50) inserted into a femoral artery. Substances were injected intravenously into a catheter in a femoral vein. The continuous intravenous infusion of pentobarbitone kept the depth of anesthesia at a constant level through the experiment. Three consecutive noradrenaline injections (0.025 μg/kg i.v.) were given initially to constitute reference responses. Repeated intravenous injections of different doses of the same test compound were given in a randomized manner. […] In other pharmacological experiments (not described here) it was also shown that the described compounds had no or minimal effect on other organs, such as for example the urinary bladder, central nervous system, intestine, vas deferens etc.

[4] = system: blood pressure in anaesthetized rabbits; assay: Effects on blood pressure in anaesthetized rabbits; type: in vivo, rabbit; settings: i.v. injections of different doses, femoral artery catheter
Procedure: as §4

[5] = Oryctolagus cuniculus, read-out: Urethra, in vitro: Max. contraction, female rabbit urethra rings
[6] = read-out: Urethra, in vitro: EC50-value (effective concentration inducing a half maximum contraction), female rabbit urethra rings
[7] = female rabbit portal vein longitudinal strips, Krebs solution, 37° C.
[8] = anaesthetized rabbits, i.v. injections of different doses
[9] = read-out: Portal vein, in vitro: Max. contraction, female rabbit portal vein longitudinal strips, Krebs solution, 37° C.
[10] = Oryctolagus cuniculus, read-out: Urethra, in vitro: EC50-value (effective concentration inducing a half maximum contraction), female rabbit urethra rings
[11] = read-out: Max. urethral pressure in vivo, in % of NA-max, anaesthetized rabbits, i.v. injections of different doses
[12] = Oryctolagus cuniculus, female rabbit urethra rings, read-out: Urethra, in vitro: Max. contraction
[13] = Oryctolagus cuniculus, female rabbit urethra rings, read-out: Urethra, in vitro: EC50-value (effective concentration inducing a half maximum contraction)
[14] = female rabbit portal vein longitudinal strips, Krebs solution, 37° C., read-out: Portal vein, in vitro: Max. contraction

| Compound | Emax [1, 5] | EC50 [1, 6] | EC50 [2] | Portal vein, in vitro: Max. contraction [2, 7] | Blood pressure; max change, in % [4] | Urethra, in vitro: Max. contraction ([1]; female rabbit urethra rings) | Emax [2, 9] | EC50 [1, 10] | Emax [3, 11] | further results |
| --- | --- | --- | --- | --- | --- | --- | --- | --- | --- | --- |
| COc1cccc(C(O)CN(C)C)c1OC(C)C (single isomer, unassigned) [Compound 6:3, (+)-α-[(dimethylamino)methyl]-3-methoxy-2-(1-methylethoxy)-benzenemethanol] | 106% | 6.5 µM | 120 µM | 34 % of NA-max | 14% |  |  |  |  | Max. urethral pressure in vivo, in % of NA-max [3, 8]: 288 % of NA-max |
| COc1cccc(C(O)CN(C)C)c1OC(C)C (single isomer, unassigned) [Compound 6:4, (-)-α-[(dimethylamino)methyl]-3-methoxy-2-(1-methylethoxy)-benzenemethanol] |  | 61 µM |  | 8 % of NA-max | 11% | 88 % of NA-max |  |  |  | Max. urethral pressure in vivo, in % of NA-max [3, 8]: 150 % of NA-max |
| CC(C)Oc1c(Cl)cccc1C(O)CN(C)C (single isomer, unassigned; (+)) [Compound 6:2, (+)-3-chloro-α-[(dimethylamino)methyl]-2-(1-methylethoxy)-benzenemethanol] |  | 4.5 µM | 17 µM | 15 % of NA-max |  | 107 % of NA-max |  |  |  |  |
| CC(C)Oc1c(Cl)cccc1C(O)CN(C)C (single isomer, unassigned; (-)) [Compound 6:1] |  | 21 µM |  |  |  | 69 % of NA-max | 9% |  |  |  |
| Cc1cccc(C(O)CN(C)C)c1OC(C)C (stereo not drawn) [Compound 1, α-[(Dimethylamino)methyl]-2-(1-methylethoxy)-3-methyl-benzenemethanol, hydrochloride] | 85% |  | 24 µM |  |  |  | 47% | 24 µM |  |  |
| CCOc1c(Cl)cccc1C(O)CN(C)C.Cl (stereo not drawn) [Compound 2, 3-Chloro-α-[(dimethylamino)methyl]-2-ethoxy-benzenemethanol, hydrochloride] | 105% |  | 6.7 µM |  | 9% |  | 22% | 18 µM | 123% |  |
| CCN(CC)CC(O)c1cccc(OC)c1OC(C)C (stereo not drawn) [Compound 3, α-[(Diethylamino)methyl]-3-methoxy-2-(1-methylethoxy)-benzenemethanol, hydrogen oxalate] | 105% |  | 130 µM |  | -2% |  | 11% | 6.6 µM | 131% |  |
| COc1cccc(C(O)CN(C)C)c1OC(C)C (stereo not drawn) [Compound 4, α-[(Dimethylamino)methyl]-3-methoxy-2-(1-methylethoxy)-benzenemethanol, hydrogen oxalate] | 95% |  | 87 µM |  | 10% |  | 35% | 5.7 µM | 211% |  |
| COc1cccc(C(O)CN2CCCC2)c1OC(C)C (stereo not drawn) [Compound 5, 3-Methoxy-2-(1-methylethoxy)-α-pyrrolidinomethyl-benzenemethanol, hydrochloride] |  |  |  |  |  |  |  |  |  | Emax [1, 12]: 68%; EC50 [1, 13]: 110 µM; Emax [2, 14]: 6% |
| CC(C)Oc1c(Cl)cccc1C(O)CN1CCCC1 (stereo not drawn) [Compound 7, 3-Chloro-2-(1-methylethoxy)-α-pyrrolidinomethyl-benzenemethanol, hydrogen oxalate] |  |  |  |  | -3% |  |  |  |  | Emax [1, 12]: 73%; EC50 [1, 13]: 12 µM; Emax [2, 14]: 14%; EC50 ([2]; female rabbit portal vein longitudinal strips, cumulative addition, Krebs solution, 37° C.): 41 µM; Emax ([3]; anaesthetized rabbits, i.v. injections of different doses, read-out: Max. urethral pressure in vivo, in % of NA-max): 189% |

— patent US5527821A, “Pharmacologically active alpha-[tertiary-aminomethyl]-benzenemethanol derivatives” (Pharmacia AB, priority 1992, dated 1996)
